Data as given in patent US12180191B1, “2-[(1H-benzimidazol-2-yl)imino]-5,5-diphenylimidazolidin-4-one as an antimicrobial compound” (KING FAISAL UNIVERSITY, priority 2023, dated 2024).

Legend:
Assay type in all cases: cell-based
Bacillus cereus = test: Agar plate disc-diffusion, antibacterial inhibition zone; details: nutrient agar, 37° C., 48 hours
Method: (§1) The agar plate disc-diffusion method was applied. […] The discs were then placed onto the surface of agar plates (nutrient agar for bacteria and Sabouraud's dextrose agar for fungi) seeded with the test organism. Each plate contained 15 mL of the agar medium, previously seeded with 0.2 mL of the broth culture of each organism pregrown for 18 hours. The plates were incubated at 37° C. for 48 hours, and 72 hours for fungi. The inhibition zones were measured in millimeter. Discs impregnated with DMSO were used as a control, and its inhibition zone was subtracted from the tested compound actual inhibition zone.
(§2) The results of the antimicrobial testing can be observed in Tables 1 and 2, below, with ciprofloxacin serving as a reference.

Escherichia coli = test: as above; details: nutrient agar, 37° C., 48 hours
Method: as §1, §2

Pseudomonas aeruginosa = test: as above; details: nutrient agar, 37° C., 48 hours
Method: as §1, §2

Staphylococcus aureus = test: as above; details: nutrient agar, 37° C., 48 hours
Method: (§3) The agar plate disc-diffusion method was applied. Sterilized filter papers (6 mm in diameter) were wetted with 10 μL of a solution of 2-[(1H-benzimidazol-2-yl)imino]-5,5-diphenylimidazolidin-4-one (3) to be tested, containing 10 mg/mL in DMSO, and the discs were allowed to air dry. The discs were then placed onto the surface of agar plates (nutrient agar for bacteria and Sabouraud's dextrose agar for fungi) seeded with the test organism. Each plate contained 15 mL of the agar medium, previously seeded with 0.2 mL of the broth culture of each organism pregrown for 18 hours. The plates were incubated at 37° C. for 48 hours, and 72 hours for fungi. The inhibition zones were measured in millimeter. Discs impregnated with DMSO were used as a control, and its inhibition zone was subtracted from the tested compound actual inhibition zone.
as §2

Aspergillus flavus = test: Agar plate disc-diffusion, antifungal inhibition zone; details: Sabouraud's dextrose agar, 72 hours
Method: as §3, §2

[1] = system: Chrysosporium keratinophilum; test: as above; details: Sabouraud's dextrose agar, 72 hours
Method: as §1, §2

[2] = A = concentration of comp. = 10,000 μL
[3] = B = concentration of comp. = 30.000 μL
[4] = C = concentration of comp. = 50,000 μL

Row | SMILES | inhibition zone, Bacillus Cereus (Bacillus cereus; [2]) [millimeter] | inhibition zone, Bacillus Cereus (Bacillus cereus; [3]) [millimeter] | inhibition zone, Bacillus Cereus (Bacillus cereus; [4]) [millimeter] | inhibition zone, Escherichia coli (Escherichia coli; [2]) [millimeter] | inhibition zone, Escherichia coli (Escherichia coli; [3]) [millimeter] | inhibition zone, Escherichia coli (Escherichia coli; [4]) [millimeter] | inhibition zone, Pseudomonas aeruginosa (Pseudomonas aeruginosa; [2]) [millimeter] | inhibition zone, Pseudomonas aeruginosa (Pseudomonas aeruginosa; [3]) [millimeter] | inhibition zone, Pseudomonas aeruginosa (Pseudomonas aeruginosa; [4]) [millimeter] | inhibition zone, Staphylococcus aureus (Staphylococcus aureus; [2]) [millimeter] | inhibition zone, Staphylococcus aureus (Staphylococcus aureus; [3]) [millimeter] | inhibition zone, Staphylococcus aureus (Staphylococcus aureus; [4]) [millimeter] | inhibition zone, Aspergillus flavus (Aspergillus flavus; [2]) [millimeter] | inhibition zone, Aspergillus flavus (Aspergillus flavus; [3]) [millimeter] | inhibition zone, Aspergillus flavus (Aspergillus flavus; [4]) [millimeter] | inhibition zone, Chrysosporium keratinophilum [1, 2] [millimeter] | inhibition zone, Chrysosporium keratinophilum [1, 3] [millimeter] | inhibition zone, Chrysosporium keratinophilum [1, 4] [millimeter]
1 | O=C(O)c1cn(C2CC2)c2cc(N3CCNCC3)c(F)cc2c1=O [Cip., ciprofloxacin] | 29 | 31 | 42 | 30 | 39 | 60 | 29 | 30 | 53 | 42 | 44 | 53 | 29 | 30 | 42 | 29 | 30 | 53
2 | O=C1N/C(=N/c2nc3ccccc3[nH]2)NC1(c1ccccc1)c1ccccc1 [Compound 3, 2-[(1H-benzimidazol-2-yl)imino]-5,5-diphenylimidazolidin-4-one] | 18 | 24 | 38 | 27 | 36 | 50 | 25 | 32 | 43 | 16 | 20 | 30 | 18 | 23 | 35 | 24 | 29 | 49
